Results as given in patent US20230190754A1, “Therapeutic combinations for the treatment of Progressive Fibrosing interstitial lung diseases” (Boehringer Ingelheim International GmbH, priority 2021, published 2023).

Test system: IPF patients
Test: Phase II clinical trial in IPF patients: Treatment Emergent Adverse Events (safety/tolerability), up to 13 weeks
Experimental: The participants were divided into 2 groups by chance (the “active agent group” and the “placebo group”). […] One 12 mg placebo tablet and one 6 mg placebo tablet (both containing no active ingredient, see Table 1) was administered orally to the patients of the second group twice daily (b.i.d.).
The “active agent group” and the “placebo group” were further distributed to two different groups regarding background medication: the “AF-group” (“antifibrotic background medication group”) and the “Non-AF-group” (“no antifibrotic background medication group”). […] The combination of both nintedanib and pirfenidone as background medication was not allowed in the “AF-group”.
The trial was a randomised, double-blind, placebo-controlled parallel group study.

## [O-][S@+]1CCc2nc(N3CCC(c4ncc(Cl)cn4)CC3)nc(NC3(CO)CCC3)c21 [Comp. of form. III]
Non-AF+AF total, 18 mg b.i.d.
  AE: Metabolism and nutrition disorders, patients n: 4
  AE: Musculoskeletal and connective tissue disorders, patients %: (5.2) %
  AE: Musculoskeletal and connective tissue disorders, patients n: 5
  AE: Nasopharyngitis, patients %: (4.1) %
  AE: Nasopharyngitis, patients n: 4
  AE: Nausea, patients %: (3.1) %
  AE: Nausea, patients n: 3
  AE: Nervous system disorders, patients %: (13.4) %
  AE: Nervous system disorders, patients n: 13
  AE: Oedema peripheral, patients %: (2.1) %
  AE: Oedema peripheral, patients n: 2
  AE: Pyrexia, patients %: (2.1) %
  AE: Pyrexia, patients n: 2
  AE: Respiratory, thoracic and mediastinal disorders, patients %: (14.4) %
  AE: Respiratory, thoracic and mediastinal disorders, patients n: 14
  AE: Rhinorrhoea, patients %: (2.1) %
  AE: Rhinorrhoea, patients n: 2
  AE: Vomiting, patients %: (3.1) %
  AE: Vomiting, patients n: 3
  AE: Weight decreased, patients %: (3.1) %
  AE: Weight decreased, patients n: 3
  AEs leading to discontinuation of trial drug, patients %: (13.4) %
  AEs leading to discontinuation of trial drug, patients n: 13
  Any AE, patients n: 67
  Diarrhoea leading to discontinuation of trial treatment, patients %: (3.1) %
  Diarrhoea leading to discontinuation of trial treatment, patients n: 3
  Dyspepsia leading to discontinuation of trial treatment, patients %: (1.0) %
  Dyspepsia leading to discontinuation of trial treatment, patients n: 1
  Gastrointestinal disorders leading to discontinuation of trial treatment, patients %: (5.2) %
  Gastrointestinal disorders leading to discontinuation of trial treatment, patients n: 5
  SAE: COPD, patients %: (1.0) %
  SAE: COPD, patients n: 1
  SAE: Cardiac disorders, patients %: (1.0) %
  SAE: Cardiac disorders, patients n: 1
  SAE: Cardiac failure congestive, patients %: (1.0) %
  SAE: Cardiac failure congestive, patients n: 1
  SAE: Condition aggravated, patients %: (2.1) %
  SAE: Condition aggravated, patients n: 2
  SAE: Covid-19 pneumonia, patients %: (1.0) %
  SAE: Covid-19 pneumonia, patients n: 1
  SAE: Dyspnoea, patients %: (1.0) %
  SAE: Dyspnoea, patients n: 1
  SAE: General disorders and administration side conditions, patients %: (2.1) %
  SAE: General disorders and administration side conditions, patients n: 2
  SAE: Infections and Infestations, patients %: (1.0) %
  SAE: Infections and Infestations, patients n: 1
  SAE: Lung neoplasm, patients %: (1.0) %
  SAE: Lung neoplasm, patients n: 1
  SAE: Neoplasms benign, malignant and unspecified, patients %: (1.0) %
  SAE: Neoplasms benign, malignant and unspecified, patients n: 1
  SAE: Nervous system disorders, patients %: (1.0) %
  SAE: Nervous system disorders, patients n: 1
  SAE: Peripheral nerve paresis, patients %: (1.0) %
  SAE: Peripheral nerve paresis, patients n: 1
  SAE: Respiratory, thoracic and mediastinal disorders, patients %: (1.0) %
  SAE: Respiratory, thoracic and mediastinal disorders, patients n: 1
  SAE: Vascular disorders, patients %: (1.0) %
  SAE: Vascular disorders, patients n: 1
  SAE: Vasculitis, patients %: (1.0) %
  SAE: Vasculitis, patients n: 1
  Serious AEs (patients with ≥1 SAE), patients %: (6.2) %
  Serious AEs (patients with ≥1 SAE), patients n: 6
  Severe AEs, patients %: (4.1) %
  Severe AEs, patients n: 4
  Vomiting leading to discontinuation of trial treatment, patients %: (1.0) %
  Vomiting leading to discontinuation of trial treatment, patients n: 1
Non-AF+AF total, 18 mg b.i.d., listed as Compound of formula III
  Any AE, patients %: (69.1) %
Non-AF+AF total, 18 mg b.i.d., listed as active agent
  Any AE, patients %: 67%
Non-AF, N = 48
  Abdominal Pain, %: (2.1) %
  Asthenia, %: (6.3) %
  Bronchitis, %: (2.1) %
  Constipation, %: (2.1) %
  Cough, %: (6.3) %
  Decreased appetite, %: (2.1) %
  Diarrhoea, %: (16.7) %
  Dizziness, %: (2.1) %
  Dyspepsia, %: (6.3) %
  Dyspnoea, %: (6.3) %
  Fatigue, %: (4.2) %
  Flatulence, %: (6.3) %
  Gastrointestinal disorders, %: (27.1) %
  General Disorders and Administration Side conditions, %: (18.8) %
  Headache, %: (6.3) %
  Infections and infestations, %: (14.6) %
  Investigations, %: (10.4) %
  Metabolism and nutrition disorders, %: (2.1) %
  Musculoskeletal and connective tissue disorders, %: (4.2) %
  Nausea, %: (4.2) %
  Nervous system disorders, %: (8.3) %
  Oedema peripheral, %: (2.1) %
  Pyrexia, %: (2.1) %
  Respiratory, thoracic and mediastinal disorders, %: (16.7) %
  Rhinorrhoea, %: (2.1) %
  Vomiting, %: (2.1) %
  Weight decreased, %: (4.2) %
Non-AF-group, 18 mg b.i.d.
  AE resulting in death, patients %: (2.1) %
  AE resulting in death, patients n: 1
  AE: Abdominal pain, patients %: (2.1) %
  AE: Abdominal pain, patients n: 1
  AE: Asthenia, patients %: (6.3) %
  AE: Asthenia, patients n: 3
  AE: Bronchitis, patients %: (2.1) %
  AE: Bronchitis, patients n: 1
  AE: Constipation, patients %: (2.1) %
  AE: Constipation, patients n: 1
  AE: Cough, patients %: (6.3) %
  AE: Cough, patients n: 3
